One compound from patent publication US20200129450A1, “COMPOSITION COMPRISING OSMUNDACETONE OR PHARMACEUTICALLY ACCEPTABLE SALT THEREOF FOR PREVENTING OR TREATING BONE DISEASE” (KORPHARM CO., LTD., priority 2016, published 2020) can be followed below.

This assay has as its system osteoclasts differentiated from mouse bone marrow cells. The experiment in a line: TRAP assay, osteoclast proliferation and differentiation inhibitory activity. In kind it is cell-based. The settings on record: for IC50: tested at 1, 4, 7 and 10 μM, TRAP-positive multinucleated cells. As to the method: Bone marrow cells were collected from the femur and shin bones of 5-8 week old male C57BL/6 mice. Muscles were removed from the bones, and stored in cold phosphate buffered saline (PBS; # CAP08-050, GenDEPOT, Katy, Tex., USA).
Both ends of each bone were cut, and the bone marrow was flushed with a flushing medium (serum-free α-MEM, 2 mM ethylenediaminetetraacetic acid) kept cool, using a 25 G needle.
Bone marrow cells were collected by centrifugation at 3,000 rpm for 3 min using Labogene 1248R (Labogene, Lynge, Denmark), and then resuspended in a wash medium. Thereafter, 8 mL of the collected bone marrow cells were overlaid on 6 mL of a lymphocyte isolation medium (LSM; #50494, MP Biomedicals, Santa Ana, Calif., USA), followed by centrifugation at 1,600 rpm for 20 minutes, thereby isolating mononuclear cells.
The mononuclear cell bands were collected from the media interface, and incubated using complete α-MEM (containing 10% fatal bovine serum (FBS; Capricorn Scientific, Ebsdorfergrund, Germany) and 1% (v/v) antibiotic (including 100 U/mL penicillin G and […] streptomycin)) in the conditions of 37° C. and 5% CO2 while the medium was exchanged every three days.
In order to promote the differentiation of osteoclasts, 1×10^5 cells were incubated in 0.5 mL of the medium per well in a 48-well plate, in the presence of osteoclast differentiation factors, M-CSF (60 ng/mL) and RANKL (150 ng/mL), purchased from PeproTec (Seoul, Korea). As known, macrophages/monocytes derived from one bone marrow differentiated into mature multinucleated osteoclasts after 6 days (Gurt et al., 2015).
The tibia and femur of 6-8 week old male C57BL/6 mice were aseptically resected, and bone marrow cells were aseptically collected using a syringe (21 G, Korea Green Cross). The bone marrow cells were floated in 500 μL of α-MEM medium (Gibco BRL Co.) containing sodium bicarbonate (2.0 g/L), streptomycin (100 mg/L), and penicillin ([…]), dispensed in a 48-well plate, and assayed in triplicate. Mononuclear cells as precursor cells of osteoclasts were treated with RANKL and M-CSF as differentiation promoting factors, and thus differentiated into osteoclasts within 5-7 days.
2-1) Sample preparation: The hot-water extract, EA extract, or fraction of Osmunda japonica were prepared by the same methods as in section 1 of <Example 1>. The EA-2 extract was dissolved in a minimum amount of DMSO, and then diluted with water to 70% of the original volume of the hot-water extract assuming that the yield of EA-2 extraction was approximately 70%. 2-2) Sample administration: The sample was continuously administered to a medium at 1:20 (v/v; 25 μL of the sample per 500 μL of the medium) from day 1 of incubation of bone marrow cells, while the medium was exchanged every 2-3 days. 2-3) Measurement of osteoclast differentiation Osteoclasts were defined by TRAP-positive multinucleated cells stained with TRAP. As for TRAP stain solution, 5 mg of naphthol AS-MS phosphate (Sigma N-4875) as a base and 25 mg of Fast Red Violet LB salt as a color developing reagent were dissolved in about 0.5 mL of N,N-dimethylformamide, and then mixed with 0.1N NaHCO3 buffer solution (50 mL) containing 50 mM tartaric acid. The reaction reagent was stored in a refrigerator before use.
After bone marrow cells were incubated in a medium containing differentiation promoting factors for 7 days, the medium was removed, and the cells were washed with PBS, and then immobilized with PBS containing 10% formalin for 2-5 minutes. Thereafter, the cells were immobilized with a 1:1 mixture solution of ethanol and acetone, followed by drying. The immobilized cells were treated with the TRAP stain solution for 15 minutes, and washed with PBS, and then the degree of cell staining was observed by a microscope.
In the microscope field of view, cells having two or more nuclei in the TRAP-positive cells were determined to be osteoclasts, and the number of cells was measured. […]

Entries after “also recorded” stand apart in the source; their conditions may differ.

Turning to `CC(=O)/C=C/c1ccc(O)c(O)c1` [Osmundacetone, (3E)-4-(3,4-dihydroxyphenyl)-3-buten-2-one], the IC50 (usually the concentration needed to halve the response being measured) was 8 µM. For the same compound, the “formation of giant osteoclasts, number compared with the positive control group” value (1 μM) is listed as “smaller compared with the positive control group”. In addition, the “formation of giant osteoclasts / differentiation of bone marrow mononuclear cells into osteoclasts” value (10 μM osmundacetone (printed 10M)) is reported as “significantly inhibited; also recorded: almost completely inhibited”. The compound further registered an IC50 (Mus musculus, Osteoclast) of at most 8 µM. Moreover, where the note is “Mus musculus, Osteoclast, 7 μM, read-out: inhibition of differentiation of bone marrow mononuclear cells into osteoclasts”, the inhibition (in general, the drop in the measured response relative to a control, in per cent) at 7 µM lay in the range of 3 to 40%. The inhibition at 10 µM (Mus musculus, Osteoclast, 10 μM, read-out: inhibition of differentiation of bone marrow mononuclear cells into osteoclasts) is at least 95%. For the setting “osmundacetone 10M as printed”, the “proliferation of osteoclast precursor cells” value is listed as “significantly inhibited”.
